2 compounds from article PMC6136348, “In the quest for new targets for pathogen eradication: the adenylosuccinate synthetase from the bacterium Helicobacter pylori” (Journal of Enzyme Inhibition and Medicinal Chemistry, 2018) can be followed below.

Assay [1] has as its target T1, adenylosuccinate synthetase (AdSS) (Helicobacter pylori, UniProt P56137).
T1 construct: gene purA; recombinant protein expressed from pET21b-HPpurA
T1 sequence (P56137 1-411): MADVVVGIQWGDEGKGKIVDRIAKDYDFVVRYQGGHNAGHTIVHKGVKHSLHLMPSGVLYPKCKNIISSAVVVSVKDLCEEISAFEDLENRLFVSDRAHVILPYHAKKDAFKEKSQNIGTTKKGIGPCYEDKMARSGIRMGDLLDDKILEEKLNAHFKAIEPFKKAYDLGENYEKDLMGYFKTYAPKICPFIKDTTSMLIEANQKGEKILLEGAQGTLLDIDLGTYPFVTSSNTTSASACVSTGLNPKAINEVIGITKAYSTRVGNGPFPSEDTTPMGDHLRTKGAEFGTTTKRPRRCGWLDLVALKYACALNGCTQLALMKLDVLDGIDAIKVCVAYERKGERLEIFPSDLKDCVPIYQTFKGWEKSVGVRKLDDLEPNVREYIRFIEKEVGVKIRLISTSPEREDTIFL
Nature of the assay: spectrophotometric enzyme assay at […] nm, competitive inhibition fit and Dixon plot. Format: biochemical.

Assay [2] concerns the target T1, adenylosuccinate synthetase (AdSS). Nature of the assay: spectrophotometric enzyme assay at […] nm, competitive inhibition fit and Dixon plot (reaction product tested as inhibitor). The format is biochemical.

The structures appear in SMILES notation.

As to `O=CN(O)CC(=O)O` [hadacidin], the Ki in assay [1] was found to be 190 ± 20 nM. Regarding `O=C(O)C[C@H](Nc1ncnc2c1ncn2[C@@H]1O[C@H](COP(=O)(O)O)[C@@H](O)[C@H]1O)C(=O)O` [adenylosuccinate], the affinity in assay [2], expressed as Ki, was 3500 ± 300 nM.

A word on the Ki: it is the equilibrium dissociation constant of an inhibitor or competing ligand from its target.
